Test [1] relates to Bacillus subtilis. Description: Antimicrobial activity against Bacillus subtilis MTCC 121 after 24 hrs by well diffusion method. Format: functional. The conditions noted are these: MTCC 121, 24 h. Background: In agar diffusion tests the substance spreads into inoculated agar from a disc or well.
In test [2] the test system is Micrococcus luteus. Description: Bactericidal activity against Micrococcus luteus MTCC 2470 after 24 hrs by serial dilution method. Format: functional. The following applies: MTCC 2470, 24 h.
Test [3] has as its system Staphylococcus aureus. Put plainly: Antimicrobial activity against Staphylococcus aureus MLS16 MTCC 2940 after 24 hrs by well diffusion method. Format: functional. The following applies: MLS16 MTCC 2940, 24 h.
For test [4], the system named is Staphylococcus aureus. Description: Bactericidal activity against Staphylococcus aureus MTCC 96 after 24 hrs by serial dilution method. The class given is functional. The following applies: MTCC 96, 24 h.
Test [5] can be described thus: Cytotoxicity against human PC3 cells after 72 hrs by XTT assay. The class given is functional, cell-based. The following applies: PC-3, 72 h. On the technique in general: Tetrazolium dyes change colour on reduction, which living cells bring about.
Test [6] deals with Raoultella planticola. Description: Antimicrobial activity against Klebsiella planticola MTCC 530 after 24 hrs by well diffusion method. Format: functional. The conditions noted are these: MTCC 530, 24 h.
For test [7], the system named is Raoultella planticola. Put plainly: Bactericidal activity against Klebsiella planticola MTCC 530 after 24 hrs by serial dilution method. The conditions noted are these: MTCC 530, 24 h. Format: functional.
Test [8] deals with Bacillus subtilis. Description: Antibiofilm activity against Bacillus subtilis MTCC 121 after 24 hrs by crystal violet staining based assay. The class given is functional, organism-based. The following applies: MTCC 121, 24 h.
In a further test the test system is Candida albicans. Put plainly: Antimicrobial activity against Candida albicans MTCC 3017 after 24 hrs by well diffusion method. Format: functional. The following applies: MTCC 3017, 24 h.
Test [9] has as its system Staphylococcus aureus. Description: Antimicrobial activity against Staphylococcus aureus MTCC 96 after 24 hrs by well diffusion method. Format: functional. The conditions noted are these: MTCC 96, 24 h.
In another test the test system is Escherichia coli. Description: Antimicrobial activity against Escherichia coli MTCC 739 after 24 hrs by well diffusion method. The conditions noted are these: MTCC 739, 24 h. The class given is functional.
Test [10] has as its system Bacillus subtilis. Put plainly: Bactericidal activity against Bacillus subtilis MTCC 121 after 24 hrs by serial dilution method. The class given is functional. The conditions noted are these: MTCC 121, 24 h.
Test [11] has as its system Micrococcus luteus. Put plainly: Antimicrobial activity against Micrococcus luteus MTCC 2470 after 24 hrs by well diffusion method. The following applies: MTCC 2470, 24 h. Format: functional.
Test [12] deals with Staphylococcus aureus. Description: Bactericidal activity against Staphylococcus aureus MLS16 MTCC 2940 after 24 hrs by serial dilution method. Format: functional. The following applies: MLS16 MTCC 2940, 24 h.
The test system of another test is A549. Put plainly: Cytotoxicity against human A549 cells after 72 hrs by XTT assay. The conditions noted are these: A549, 72 h. The class given is functional, cell-based.
The subject of the next test is Pseudomonas aeruginosa. Put plainly: Antimicrobial activity against Pseudomonas aeruginosa MTCC 2453 after 24 hrs by well diffusion method. Format: functional. The following applies: MTCC 2453, 24 h.

We go through 14 compounds from ChEMBL document CHEMBL3808371, “Design, synthesis and biological evaluation of diaziridinyl quinone isoxazole hybrids” (Eur J Med Chem, 2016).

The structures appear in SMILES notation. Values after ≈ are worked out from the molar mass of the structure shown.

A word on the MIC: it is the lowest concentration that inhibits growth of the organism. A higher MIC goes with a need for much substance. For orientation: MBC means the lowest tested concentration that kills the bacteria rather than only halting them. A low value points to more potent killing. The term IC50 denotes the concentration at which inhibition is half-maximal.

With `O=C1C=C(N2CC2)C(=O)C(c2cc(-c3ccc(C(=O)NCC4CC4)s3)on2)=C1N1CC1`, the MIC in the test with Bacillus subtilis [1] was 15.6 µg/mL (≈ 35.7 µM); in the test on Staphylococcus aureus [3] it was > 125 µg/mL; with Raoultella planticola [6], > 125 µg/mL; in the test with Candida albicans it was 15.6 µg/mL (≈ 35.7 µM); in the test on Staphylococcus aureus [9] it was > 125 µg/mL; in the test with Escherichia coli, > 125 µg/mL. Further, the MIC against Micrococcus luteus [11] and with Pseudomonas aeruginosa was > 125 µg/mL in each case. For the same compound, the MBC against Micrococcus luteus [2] is > 125 µg/mL; against Staphylococcus aureus [4], > 125 µg/mL; against Raoultella planticola [7], > 125 µg/mL; in the test with Bacillus subtilis [10] it was 31.2 µg/mL (≈ 71.5 µM); with Staphylococcus aureus [12] it was > 125 µg/mL. Also, the IC50 in test [5] amounted to 3.5 µM; in the test on Bacillus subtilis [8], 9.8 µM; in the test on A549 it was 2.1 µM.
Regarding `COc1ccc(OC)c(-c2cc(-c3ccc(C(=O)N4CCOCC4)s3)on2)c1`, the IC50 (in [5]; with A549) was > 30 µM throughout.
For `CN(C)C(=O)c1ccc(-c2cc(C3=CC(=O)C=CC3=O)no2)s1`, the IC50 was 7.2 µM in [5] and > 30 µM in the test with A549.
Take `CCN(CC)C(=O)c1ccc(-c2cc(C3=C(N4CC4)C(=O)C=C(N4CC4)C3=O)no2)s1`: the MIC against Bacillus subtilis [1] is 7.8 µg/mL (≈ 17.8 µM); in the test on Staphylococcus aureus [3] it was 7.8 µg/mL (≈ 17.8 µM); against Raoultella planticola [6], 15.6 µg/mL (≈ 35.6 µM); in the test with Candida albicans, 15.6 µg/mL (≈ 35.6 µM); with Staphylococcus aureus [9], 7.8 µg/mL (≈ 17.8 µM); in the test with Escherichia coli it was > 125 µg/mL. Moreover, the MIC against Micrococcus luteus [11] is 15.6 µg/mL (≈ 35.6 µM); in the test with Pseudomonas aeruginosa, > 125 µg/mL. Moreover, the MBC in the test on Micrococcus luteus [2] was 62.5 µg/mL (≈ 143 µM); against Staphylococcus aureus [4], 15.6 µg/mL (≈ 35.6 µM); in the test on Raoultella planticola [7], 62.5 µg/mL (≈ 143 µM); with Bacillus subtilis [10], 31.2 µg/mL (≈ 71.2 µM); against Staphylococcus aureus [12] it was 31.2 µg/mL (≈ 71.2 µM). Also, the IC50 amounted to 0.5 µM in [5] and 0.9 µM with A549.
Turning to `CCCN(C)C(=O)c1ccc(-c2cc(C3=CC(=O)C=CC3=O)no2)s1`, the values for the IC50 (in test [5]; in the test on A549) were < 30 µM and > 30 µM, respectively.
In the case of `COc1ccc(OC)c(-c2cc(-c3ccc(C(=O)NC4CC4)s3)on2)c1`, the IC50 in [5] was 7.8 µM; in the test on A549, > 30 µM.
The matching figures for `COc1ccc(OC)c(-c2cc(-c3ccc(C(=O)N(C)C)s3)on2)c1`: > 30 µM and > 30 µM.
With `COc1ccc(OC)c(-c2cc(-c3ccc(C(=O)N4CCCCC4)s3)on2)c1`, the IC50 (in test [5]; in the test on A549) was > 30 µM each time.
As to `COc1ccc(OC)c(-c2cc(-c3ccc(C(=O)N4CCC(C(F)(F)F)CC4)s3)on2)c1`, the IC50 (in test [5]; with A549) was > 30 µM throughout.
For the compound `O=C1C=CC(=O)C(c2cc(-c3ccc(C(=O)NCC4CC4)s3)on2)=C1`, the IC50 (in [5]; in the test with A549) was > 30 µM throughout.
On to `CCCN(C)C(=O)c1ccc(-c2cc(-c3cc(OC)ccc3OC)no2)s1`, for which the IC50 (in [5]; in the test with A549) was > 30 µM each time.
As for `O=C1C=C(N2CC2)C(=O)C(c2cc(-c3ccc(C(=O)N4CCCC4)s3)on2)=C1N1CC1`, the MIC in the test with Bacillus subtilis [1] is 7.8 µg/mL (≈ 17.9 µM); in the test on Staphylococcus aureus [3], 15.6 µg/mL (≈ 35.7 µM); in the test with Raoultella planticola [6] it was 15.6 µg/mL (≈ 35.7 µM); with Candida albicans, 31.2 µg/mL (≈ 71.5 µM); against Staphylococcus aureus [9], 15.6 µg/mL (≈ 35.7 µM); with Escherichia coli, > 125 µg/mL. For the same compound, the MIC against Micrococcus luteus [11] is 31.2 µg/mL (≈ 71.5 µM); against Pseudomonas aeruginosa, > 125 µg/mL. The MBC in the test on Micrococcus luteus [2] was determined as 62.5 µg/mL (≈ 143 µM); in the test with Staphylococcus aureus [4], 31.2 µg/mL (≈ 71.5 µM); against Raoultella planticola [7], 31.2 µg/mL (≈ 71.5 µM); in the test on Bacillus subtilis [10], 15.6 µg/mL (≈ 35.7 µM); in the test with Staphylococcus aureus [12] it was 31.2 µg/mL (≈ 71.5 µM). Moreover, the IC50 in test [5] is 1 µM; in the test with A549, 1.7 µM.
On to `CCN(CC)C(=O)c1ccc(-c2cc(C3=CC(=O)C=CC3=O)no2)s1`, for which the IC50 in test [5] stood at 8.9 µM; in the test on A549, 10 µM.
Consider `CN(Cc1ccccc1)C(=O)c1ccc(-c2cc(C3=C(N4CC4)C(=O)C=C(N4CC4)C3=O)no2)s1`, for which the MIC was 31.2 µg/mL (≈ 64.1 µM) against Bacillus subtilis [1]; 62.5 µg/mL (≈ 128 µM) against Staphylococcus aureus [3]; > 125 µg/mL with Raoultella planticola [6]; > 125 µg/mL in the test with Candida albicans; 31.2 µg/mL (≈ 64.1 µM) against Staphylococcus aureus [9]; > 125 µg/mL in the test with Escherichia coli. In addition, the MIC in the test with Micrococcus luteus [11] is 15.6 µg/mL (≈ 32.1 µM); against Pseudomonas aeruginosa it was > 125 µg/mL. In addition, the MBC against Micrococcus luteus [2] was 62.5 µg/mL (≈ 128 µM); with Staphylococcus aureus [4] it was 62.5 µg/mL (≈ 128 µM); against Raoultella planticola [7] it was > 125 µg/mL; against Bacillus subtilis [10] it was 125 µg/mL (≈ 257 µM); in the test with Staphylococcus aureus [12], 125 µg/mL (≈ 257 µM). For the same compound, the figures for the IC50 (in test [5]; in the test with A549) were 1.2 µM and 7.3 µM, respectively.
